Experimental findings from PMC5796995 (Oncotarget, 2017) are described below.

For series [1], the system named is HepaRG cells. Format: cell-based, human.
A further series relates to Caco-2 monolayers. It is filed as in vitro ADME. As to the method:
Assay plates containing 12 wells of 21-day Caco-2 monolayers were provided by MB Biosciences. Monolayer integrity was verified using transepithelial electrical resistance measurements (TEER) prior to assay. Treatment solutions of AFB1, AFB2a, and AFB2a-Arg were prepared in the provided Hank's buffered salt solution (HBSS) with a pH of 7.4 and a final DMSO concentration of 0.2%. Caco-2 monolayers were first rinsed with HBSS and then the apical chamber was filled with 500 μL of test compound solution while the basal chamber was filled with 1500 μL of blank HBSS (both chambers were kept at pH 7.4). Plates were incubated at 37°C for 2 hours to allow compound equilibration. Compound concentration was measured at t = 0 hrs and t = 2 hours by HPLC-MS. Permeability (Papp) was calculated as follows: Papp=dQ/dt×1/A×C0
Where dQ/dt is the amount of translocated material over incubation time (nmol/s), A is the area of the insert (cm^2), and C0 is the initial concentration of the test compound applied. […] ER was calculated as follows: ER=Papp(Basal→Apical)/Papp(Apical→Basal)

The subject of the next series is plasma proteins. It is filed as in vitro ADME. Conditions: human.
The next series relates to calf thymus DNA. It is filed as biochemical.
Series [2] relates to HepaRG cells. It is filed as cell-based, human. The source holds these as a separate data set.
Series [3] deals with HepG2 cells. Format: cell-based, human.
For series [4], the system named is Salmonella typhimurium (TA100). Format: cell-based.
Series [5] is classed as physicochemical. The note with it: pH 7. As to the method:
Individual standards of AFB1, AFB2a, and AFB2a-Arg were prepared in deionized water (pH 7) at a concentration of 300 ng/mL each. Aliquots of 300 μL of each aqueous standard were added to 300 μL of 1-octanol. Solutions were shaken at 1800 rpm for 5 min and then allowed to equilibrate for an additional 30 minutes. Aqueous and organic layers for each sample were separated and analyzed by HPLC-MS. Octanol-water partition coefficients (P) were calculated as follows: P=[Peak area in octanol fraction]/[Peak area in aqueous fraction]

Series [6] relates to hepatic microsomal enzymes. Format: in vitro ADME, rat.
Series [7] has as its system HepG2 cells. Format: cell-based, human. The source holds these as a separate data set.

Regarding `COc1cc(O)c(-c2ccn(C(CCCNC(=N)N)C(=O)O)c2)c2oc(=O)c3c(c12)CCC3=O` (stereo not drawn) [AFB2a-Arg, aflatoxin B2a-arginine], the “concentrations without increase in micronuclei formation” value in the series with HepaRG cells [1] and with HepG2 cells [7] was no more than 60 µM throughout. The number of micronuclei result with HepaRG cells [1] and in the series with HepG2 cells [7] was “did not show this genotoxic marker” throughout. In addition, in the series with Caco-2 monolayers, the “efflux ratio, comparison” value is recorded as “significantly higher efflux ratio than AFB1”. In the series on Caco-2 monolayers (pH 7.4), the “intestinal permeability (Papp), comparison” value was “significantly lower than AFB1”. The compound further came in with a plasma protein bound with plasma proteins of 99%. Besides, the DNA adduct formation entry in the series on calf thymus DNA is reported as “no additional peaks were discovered”. For the same compound, the “concentrations that significantly reduced the percentage of viable cells” value in the series with HepaRG cells [2] and in the series with HepG2 cells [3] was “no significant decreases in cell viability” each time. In addition, the “number of revertant wells (mutagenic response)” value in series [4] is “did not show any significant differences from the vehicle”. The octanol-water partition coefficient entry in [5] was “lower partition coefficient than AFB1 or AFB2a”. The “degraded by hepatic microsomal enzymes” value in series [6] is given as “not significantly degraded”.

`COc1cc2c(c3oc(=O)c4c(c13)CCC4=O)C1C=COC1O2` (stereo not drawn) [AFB1, aflatoxin B1, reference compound]: the number of micronuclei result in the series with HepaRG cells [1] and in the series on HepG2 cells [7] was “significant increase in the number of micronuclei” throughout. In addition, the plasma protein bound with plasma proteins was 82%. For the same compound, the DNA adduct formation result with calf thymus DNA is “presence of DNA adduction”. The “concentrations that significantly reduced the percentage of viable cells” value in the series on HepaRG cells [2] was greater than 3.75 µM; in the series with HepG2 cells [3] it was greater than 7.5 µM. Further, the “number of revertant wells (mutagenic response)” value in series [4] is “significant increase in the number of revertant wells”. The “degraded by hepatic microsomal enzymes” value in [6] was “approximately 75%”.
